Assay [1] deals with T1, VDR (Mus musculus, UniProt P48281).
T1 construct: endogenous in cells; host or cells: 4TO7 and 4T1 mouse triple-negative breast cancer cells
T1 sequence (P48281 1-422): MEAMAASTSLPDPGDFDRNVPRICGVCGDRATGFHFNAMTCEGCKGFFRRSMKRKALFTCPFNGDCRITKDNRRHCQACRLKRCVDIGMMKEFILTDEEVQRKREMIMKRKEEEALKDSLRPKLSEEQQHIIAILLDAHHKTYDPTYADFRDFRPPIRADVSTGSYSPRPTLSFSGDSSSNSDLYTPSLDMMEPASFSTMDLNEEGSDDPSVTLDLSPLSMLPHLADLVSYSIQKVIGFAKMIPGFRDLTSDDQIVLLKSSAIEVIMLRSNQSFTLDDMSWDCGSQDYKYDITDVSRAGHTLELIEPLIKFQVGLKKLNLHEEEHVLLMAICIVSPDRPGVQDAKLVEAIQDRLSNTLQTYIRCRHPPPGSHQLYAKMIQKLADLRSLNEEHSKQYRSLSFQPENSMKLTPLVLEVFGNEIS
The assay can be described thus: Cyp24a1 induction assay for VDR agonism in 4T1 cells. It counts as cell-based. Particulars: 24 h. Here is the method:
(§1) Figure 5 (a) and (b) Analysis of induced Cyp24a1 expression in 4TO7 (a) and 4T1 (b) cells to test for VDR agonism of DK-406 and heterocyclic analogues after 24 h treatment. c-e. Analysis of the cytotoxicity of hybrid compounds after 24 h using the MTGlo assay (see Methods for details) in 4TO7 (c), 4T1 (d) and MDA-MB-231 (e) cells. […] Each condition was compared to control. *: p ≤ 0.05, **: p ≤ 0.01, ***: p ≤ 0.001, ****: p ≤ 0.0001, ns: not significant.
(§2) As previously, we were interested in studying the efficacy of hybrids in models of TNBC. We used the 4T1 cell line[20] as well as the related TNBC cell line 4TO7, which was derived from the same mouse tumor as 4T1 cells in Balb/c mice[33]. 4TO7 cells readily form primary tumors. […] These lines also have the advantage that anti-tumor efficacy studies can be performed in Balb/c mice, which have intact immune systems. Compounds were initially tested for VDR agonist activity in 4TO7 cells by screening induction of the VDR target gene Cyp24a1. […] The pyridyl hybrids were then tested for efficacy in vitro in 4TO7 and 4T1 cells using an MT-Glo assay in which only viable cells can convert a precursor into a substrate for a luciferase bioluminescence assay (Fig. 5c,d; see Methods for details).
Mouse 4T07 cells and 4T01 cells were cultured in DMEM (319–005-CL; WISENT Inc.) supplemented with 10% heat-inactivated FBS. […]

Assay [2] addresses T1, VDR. Description: Cyp24a1 induction assay for VDR agonism in 4TO7 cells. It is filed as cell-based. To be noted: 24 h. On the procedure:
as §1, §2
Mouse 4T07 cells and 4T01 cells were cultured in DMEM (319–005-CL; WISENT Inc.) supplemented with 10% heat-inactivated FBS. MB-MDA231 cells were cultured in Leibovitz’s L-15 medium with 10% heat-inactivated FBS in the absence of CO2.
RNA extraction was performed with the FavorPrep tissue total RNA mini kit (FAVORGEN Biotech Corporation—FATRK 001) as per manufacturer’s instructions. cDNA was obtained from 1 µg of RNA using 5X All-in-One RT Mastermix (Applied Biological Materials (abm) Inc.—G485) and diluted 5 times. qPCR was performed with BrightGreen 2X q-PCR MasterMix (abm—MasterMix-LR-XL) on a Roche LightCycler 96 system. Expression of targeted genes was normalized to 18S RNA.

Assay [3] concerns H3K9 and H3K27 acetylation (class I HDACs). The assay can be described thus: Western blotting of H3K9 and H3K27 acetylation in 4TO7 cells. It counts as cell-based, mouse. Particulars: 10^–5 M, 6 h, western blot. Here is the method:
The hybrids were assessed to determine their HDACi and VDR agonist activity as well as their antiproliferative properties relative to DK-406. HDACi activity was assessed in vitro using an acetylated lysine substrate that releases a fluorescent reporter upon HDACi deacetylation and subsequent trypsin digestion. Increasing sidechain length of pyrimidine hybrids enhanced the potency of HDAC6 inhibition, with several compounds inhibiting HDAC6 with a sub-micromolar IC50, similar to that of DK-406 (Fig. 4a). […] Next, we analyzed the effects of compounds on levels of H3K9 and H3K27 acetylation in 4TO7 cells, which are controlled by class I HDACs[29],[30]. […] We also tested the capacity of analogues to induce tubulin acetylation, controlled by class II enzyme HDAC6[32], in 4TO7 cells. […]
Figure 4 (a) Results of in vitro assays for inhibition of purified HDAC2 and HDAC6 by DK-406 and heterocyclic hybrids as measured by inhibition of deacetylation of a fluorometric substrate (see Methods for details). […]
After treatments, 4T07 cells were solubilized in Lysis Buffer (20 mM Tris, pH 8, 150 mM NaCl, 1% Triton X-100, 3,5 mM SDS, 13 mM deoxycholic acid) and proteins extracted were separated on a 4–15% Tris/Glycine/SDS gel (BIO RAD). […] Signal was detected using Clarity ECL chemiluminescent substrates (Bio-Rad) and ChemiDoc Imaging System from the same company was used to quantify the intensity of bands. […]

From article PMC9038752, “Molecular mechanisms of bifunctional vitamin D receptor agonist-histone deacetylase inhibitor hybrid molecules in triple-negative breast cancer” (Scientific Reports, 2022) come the findings set out here.

Entries after “also recorded” stand apart in the source; their conditions may differ.

As to `CCC(CC)(c1ccc(OCCCCCC(=O)NO)cc1)c1ccc(OCC(O)C(C)(C)C)c(C)n1` (stereo not drawn) [AM-193], at VDR [1], the “VDR agonist activity (Cyp24a1 induction)” value is on record as “full agonists; also recorded: potency of AM-193 was confirmed”. At VDR [2], the “VDR agonist activity (Cyp24a1 induction)” value was “partial agonists” and the “potency in Cyp24a1 induction assay relative to DK-406” value is reported as “approximately tenfold”. Further, the “H3 acetylation at K9 and K27” value in assay [3] is listed as “enhanced H3 acetylation, although to a lesser degree than DK-406”.

Consider `CCC(CC)(c1ccc(C(=O)NCCCCCC(=O)NO)cc1)c1ccc(OCC(O)C(C)(C)C)c(C)c1` (stereo not drawn) [DK-406], for which the entries for the “VDR agonist activity (Cyp24a1 induction)” value at VDR [1] and at VDR [2] were “full agonists” and “partial agonists”, respectively. In assay [3], the “H3 acetylation at K9 and K27” value was “induced H3 acetylation at K9 and K27”.

With `CCC(CC)(c1ccc(OCC(O)C(C)(C)C)c(C)c1)c1ccc(OCC(=O)NO)cn1` (stereo not drawn) [AM-155], the “VDR agonist activity (Cyp24a1 induction)” value at VDR [2] is listed as “weakly potent VDR agonists”.

With `CCC(CC)(c1ccc(OCC(O)C(C)(C)C)c(C)c1)c1ccc(OCCCC(=O)NO)cn1` (stereo not drawn) [AM-171], the “VDR agonist activity (Cyp24a1 induction)” value on VDR [2] is recorded as “weakly potent VDR agonists”.
